Experimental data from patent publication US20250241893A1, “TREATMENT OF COGNITIVE DYSFUNCTION” (GH RESEARCH IRELAND LIMITED, priority 2022, published 2025).
“Also recorded” adds a separate entry of the source.

What was measured:
[1] = test system: Escherichia coli (WP2 uvrA pKM101); experiment: Bacterial mutation test in Escherichia coli; assay type: cell-based; settings: up to 5000 μg/plate, absence and presence of rat liver S-9
Protocol: These conditions included treatments at concentrations up to 5000 μg/plate (the maximum recommended concentration according to current regulatory guidelines), in the absence and in the presence of a rat liver metabolic activation system (S-9).

[2] = Pharmacokinetics of 5-MeO-DMT and bufotenine after inhalation; assay type: in vivo, human; settings: 3 hours after inhalation, whole dose range (6 mg, 12 mg, 18 mg)
Protocol: Blood samples were obtained at 1; 2; 4; 7; 10; 15; 20; 30; 45 min and 1; 1.5; 2; 3; 4 hours after administration. […] PK parameters were generated by algebraic analysis of the concentration versus time plots for each individual. The analysis was carried out using the software Phoenix WinNonlin 6.3.

[3] = test system: patients with postpartum depression (PPD); experiment: Clinical trial of inhaled 5-MeO-DMT in postpartum depression; settings: one PPD patient
Protocol: The single-arm, open-label clinical trial will involve 15 adult female patients with clinically diagnosed postpartum depression (PPD).
The second dose (12 mg) will only be administered if: • a. A peak experience (total score of • 75) has not been achieved following the 6 mg dose, and • b. The 6 mg dose was safe and well-tolerated according to the investigator, • c. Any psychoactive effects (PsE) of the prior dose have subsided, and • d. Pre-dose vital parameters and forced expiratory volume in one second (FEV1) are in normal range, or if outside of the normal range, are not clinically significant according to the investigator. • 3. Similarly, a third dose (18 mg) will only be administered if: • a. A peak experience (total score of • 75) has not been achieved following the 12 mg dose, and • b. The 12 mg dose was safe and well-tolerated according to the investigator, and • c. Any PsE of the prior dose have subsided, and • d. Pre-dose vital parameters and forced expiratory volume in one second (FEV1) are in normal range, or if outside of the normal range, are not clinically significant according to the investigator.
The patients will be assessed for a peak psychedelic experience (based on a patient-scored visual analogue scale, the PE scale), sedation, and other endpoints after dosing.
Follow-up visits are planned for Day 1, and Day 7 after the dosing day.
The following criteria must be met by all patients considered for clinical trial participation: • 1. Is female and in the age range between 18 and 45 years (inclusive) at screening. • 2. Has a body mass index (BMI) in the range of 18.5 and 35 kg/m^2 (inclusive) at screening. • 3. Meets the trial criteria for PPD as assessed by a trial psychiatrist or registered psychologist: • a. Diagnosis of Major Depressive Disorder without psychotic features, confirmed by the Mini-International Neuropsychiatric Interview (MINI), with peri-partum onset that began no earlier than gestation and no later than the first 4 weeks postpartum. • b. Has a Montgomery-Asberg Depression Rating Scale (MADRS) total score of equal to or greater than 28 at screening and pre-dose on Day 0. • 6. […] Patients must have a negative pregnancy test at screening and on the pre-test day (Day −1). • 5. Is willing to delay start of other antidepressant or anxiety medication until after the end of the trial at Day 7 and agrees to keep any psychotherapy unchanged during the trial.
A potential patient who meets any of the following key exclusion criteria will be excluded from participation in this trial: • 1. Has, based on history, psychiatric assessment, and evaluation of the MINI, a current or prior diagnosis of bipolar disorder, a manic or hypomanic episode, a psychotic disorder, Major Depressive Disorder (MDD) or other mood disorder with psychotic features, obsessive compulsive disorder, post-traumatic stress disorder (PTSD), autism spectrum disorder, borderline personality disorder, schizophrenia, delusional disorder, paranoid personality disorder, schizoaffective disorder, clinically significant intellectual disability, or any other psychiatric comorbidity that renders the patient unsuitable for the trial according to the investigator's judgment. • 2. Has one or more first or second degree relatives with a current or previously diagnosed bipolar disorder, psychotic disorder or other mood disorder (including MDD) with psychotic features. • 3. Is in the judgement of a trial psychiatrist or registered psychologist, at significant risk for suicide based on history, psychiatric assessment, and evaluation of suicidal ideation and suicidal behaviour based on the Columbia-Suicide Severity Rating Scale (C-SSRS). • 4. Has taken anti-depressive medication within 14 days or 5 half-lives (whichever is longer) prior to dosing (exception: within the last 5 weeks in the case of fluoxetine). • 5.

## COc1ccc2[nH]cc(CCN(C)C)c2c1 [5-MeO-DMT]
[1]
  Mutation induction: did not induce mutation
[2]
  Detectability in the plasma: no longer detectable
[3]
  ECG (3 hours), safety laboratory analyses (7 days), CADSS (3 hours, 1 day, 7 days): unremarkable
  MADRS remission (MADRS total score equal or less than 10): fulfilled
  MADRS response (at least 50% improvement from baseline): fulfilled
  Reported adverse events (cramping left abdominal pain and headache, Day 0): mild, short-lasting and resolved spontaneously
[3]; 2 hr, baseline 29
  Total MADRS improvement: 24
  Total MADRS score: 5
[3]; Day 1, baseline 3
  MADRS Lassitude score: 0
[3]; Day 1, baseline 6
  BPRS Tension improvement: 5
[3]; Day 1, baseline 29
  Total MADRS improvement: 29
  Total MADRS score: 0
[3]; Day 7, Day 0 score 3
  BIMF item 16 (I worry about how other people judge me (as a mother)) score: 5
[3]; Day 7, Day 0 score 5
  BIMF item 10 (I trust my own feelings (instincts) when taking care of my baby) score: 6
[3]; Day 7, Day 0 score 5, maximum possible 12
  BIMF functional domain Adjustment score: 6
[3]; Day 7, Day 0 score 9, maximum possible 18
  BIMF functional domain Self Care score: 13
[3]; Day 7, Day 0 score 12, maximum possible 12
  BIMF functional domain Infant Care score: 12
[3]; Day 7, Day 0 score 15, maximum possible 18
  BIMF functional domain Mother-Child Interaction score: 17
[3]; Day 7, Day 0 score 17, maximum possible 18
  BIMF functional domain Social Support score: 18
[3]; Day 7, Day 0 score 28, maximum possible 36
  BIMF functional domain Management score: 33
[3]; Day 7, Day 0 score 44, maximum possible 60
  BIMF functional domain Psychological Well-being score: 53
[3]; Day 7, baseline 29
  Total MADRS improvement: 28
  Total MADRS score: 1
[3]; Day 7, from 92 to 105 (possible total 120)
  BIMF total score percentage improvement: 14%
[3]; Day 7 vs Day 0
  BIMF TOTAL Δ (Day 7): 13
  BIMF functional domain Adjustment % improvement: 20.00%
  BIMF functional domain Infant Care % improvement: 0.00%
  BIMF functional domain Management % improvement: 18%
  BIMF functional domain Self Care % improvement: 44%
[3]; IDR
  Time to clinical remission after administration: ≤ 2 h
[3]; IDR 6 mg then 12 mg
  Tolerability of inhaled 5-MeO-DMT: well tolerated with no inhalation-related adverse events; also recorded: well tolerated
[3]; discharge, baseline 6
  BPRS Tension improvement: 5
[3]; shortly after administration
  Changes in vital parameters: temporary, clinically non-relevant increase in heart rate and blood pressure
